Data from patent US12178885B2, “Method for mediating targeted delivery of a composition to the brain of a subject in need thereof” (Fudan University, priority 2018, dated 2024).
Peptide text beside a SMILES is read from it.

Key:
orthotopic U87 glioma = experiment: anti-glioma efficacy: median survival time of orthotopic tumor model mice; format: in vivo, nude mice; conditions: tail vein, adriamycin 2 mg/kg per injection, days 7, 9, 11, 13, 15; saline group 27 days
Protocol: By injecting SP modified delivery system, unmodified polypeptide delivery system, free drug and normal saline into nude mice bearing orthotopic U87 glioma model via tail vein, the anti-tumor effect of SP modified delivery system in vivo is evaluated with the median survival time, apoptosis of tumor tissue and neovascularization density as indicators.
Establishment of glioma model in nude mice: Took U87 cells in logarithmic growth phase, digested and counted the cells, suspended them with appropriate amount of PBS buffer, inoculated 6×10^5 cells (dispersed in 5 μL PBS buffer) to each nude mouse. The nude mice was anesthetized with 7% chloral hydrate before the experiment, fixed with a brain stereotactic instrument, and inoculated the suspended cells to the striatum (i.e. 0.6 mm forward, 1.8 mm to the right, and 3 mm deep of the anterior fontanelle). Regularly observed the state of nude mice after operation.
Nude mice with orthotopic brain tumor model were randomly divided into 4 groups (n=13), and their body weight was recorded on the 7th, 9th, 11th, 13th and 15th day, respectively.

SP antibody = experiment: competition ELISA for binding of SP antibody to SP fixed on 96-well plate; conditions: without plasma incubation
Protocol: The specific operation was as follows: 0.1 μg SP-PEG-DSPE was added to each well of ELISA plate, left overnight at room temperature, washed with PBS for 3 times, sealed with 3% BSA for 1 h, and the BSA solution was sucked off Added SP antibody, incubated at 37° C. for 1 h, washed with PBS for three times, added liposome incubated with serum or PBS in advance and diluted in gradient, incubated at 37° C. for 1 h, washed with PBS for three times, added corresponding horseradish peroxidase labeled secondary antibody, reacted with TMB chromogenic solution for 3-15 min after 1 h, stopped the reaction with 2 M H2SO4, and measured its absorbance value at 450 nm wavelength.

neural cell line PC12 = conditions: gradient concentration of SP co-cultured with PC12
Source text: Safety evaluation: The gradient concentration of SP was co-cultured with nerve cell line PC12 to evaluate its cytotoxicity in vitro. At the same time, the heart, liver, spleen, lung and kidney tissues of mice in the pharmacodynamic test of orthotopic tumor were dissected and fixed in PBS solution of 4% paraformaldehyde, paraffin-embedded sections were made, stained with HE, observed and photographed under a microscope. the experimental results are shown in FIG. 10.

In the case of `COc1cccc2c1C(=O)c1c(O)c3c(c(O)c1C2=O)C[C@@](O)(C(=O)CO)C[C@@H]3O[C@H]1C[C@H](N)[C@H](O)[C@H](C)O1` [DOX, adriamycin], the median survival time (orthotopic U87 glioma) was 31 days.
With `CC[C@H](C)[C@H](NC(=O)[C@H](C)NC(=O)CNC(=O)[C@H](CCCCN)NC(=O)[C@H](CC(N)=O)NC(=O)[C@H](CO)NC(=O)CN)C(=O)N[C@H](C(=O)NCC(=O)N[C@@H](CC(C)C)C(=O)N[C@@H](CCSC)C(N)=O)[C@@H](C)CC` [SP] (H-GSNKGAIIGLM-NH2) the “competition for interaction between SP and antibody” value (SP antibody) was “can compete for the interaction between SP and antibody” and the cytotoxicity (neural cell line PC12) was “did not show cytotoxicity”.
